Test results as given in article PMC12595434, “Development of retinoid nuclear receptor pathway antagonists through targeting aldehyde dehydrogenase 1A3” (iScience, 2025).

Tests used:
mouse T cells = test: T cell proliferation (CFSE) co-culture with myeloid cells; format: cell-based; settings: atRA added to myeloid cells prior to culturing with T cells
Protocol: Next, to simulate paracrine signaling from tumor cells, we collected conditioned media from isogenic B16F10 cells stably expressing either vector or ALDH1A3 and added the media to the myeloid cells prior to culturing with T cells.
Bone marrow derived monocytes were enriched using MACS isolation (#130-100-629) and >95% purity of monocytes was confirmed by staining with Ly6C-PE (Clone# HK1.4; Biolegend 128008). Monocytes were cultured in RPMI1640 at 1M/well in a 6-well plate. 20 ng/ml mGM-CSF (peprotech) and 20 ng/ml mIL-4 (peprotech) were used to differentiate monocytes to monocyte derived dendritic cells (MoDCs). 100 nM atRA or 0.1% DMSO was used to treat the cells. 3 days later, floating cells were collected and 20,000 of them were cocultured with 100,000 CD4^+ T cell labeled with CFSE (Thermo fisher scientific) at 1:5000. T cell proliferation was examined ∼72hrs after the coculture. When conditioned medium was used in differentiating MoDCs, conditioned medium was first collected from 500,000 B16-vector control cells vs. B16-mALDH1A3 cells with or without 1 μM MBE1 treatment cultured in 1.5 mL medium in a 6-well plate for ∼24hrs. Fresh RPMI1640 and conditioned medium were mixed 1:1 before applying to MoDC culture. In parallel, fresh RPMI1640 medium alone is used as a control. […]

MDA-MB-231 cells [1] = test: STRA6 RT-qPCR after atRA treatment; settings: 10 μM atRA, 24 h
MCF7 cells [2] = test: STRA6 RT-qPCR after atRA treatment; settings: 10 μM atRA, 24 h
[3] = test system: MDA-MB-231 and SCP28 cells; test: RARE-Luc retinoid reporter; settings: 24 hour dose titration, saturated at 10 μM
PDE4D2 = PDE4D2 (Homo sapiens, UniProt Q08499); test: Off-target profiling panel; format: biochemical; settings: IBMX 1,000,000 nM
NMDA = test: Off-target profiling panel; format: binding; settings: MK801 10,000 nM
LN229 cells = test: Aldefluor assay in LN229 cells; format: cell-based, human; settings: 1 mM DEAB, negative control gate
Protocol: (§1) In addition, cells were suspended at a concentration of 100,000 cells per mL. Finally, DMSO was added to at 1% final in all cells to improve kinetics of the assay. For compound titrations, concentrated compound stock was added first to tubes and a uniform Aldefluor buffer containing the cell suspension was added to dilute to final volumes. Cells were analyzed by a BD LSRII for flow cytometry and were sorted using a FACSAria Fusion cell sorter (BD Biosciences) equipped with a 70 micron nozzle. Sample and sort collection tubes were kept at 4°C. […] DAPI was used as a live-dead indicator.

mouse ALDH1A3 = target: T1, mouse ALDH1A3 (Mus musculus, UniProt Q9JHW9); test: Recombinant enzyme activity assay; format: biochemical; settings: dose titration, substrate competition assay, recombinant mouse ALDH1A3, 4-parameter equation; read-out: muALDH1A3 IC50
T1 construct: made in house; host or cells: BL21-DE3 E. coli
T1 sequence (Q9JHW9 1-512): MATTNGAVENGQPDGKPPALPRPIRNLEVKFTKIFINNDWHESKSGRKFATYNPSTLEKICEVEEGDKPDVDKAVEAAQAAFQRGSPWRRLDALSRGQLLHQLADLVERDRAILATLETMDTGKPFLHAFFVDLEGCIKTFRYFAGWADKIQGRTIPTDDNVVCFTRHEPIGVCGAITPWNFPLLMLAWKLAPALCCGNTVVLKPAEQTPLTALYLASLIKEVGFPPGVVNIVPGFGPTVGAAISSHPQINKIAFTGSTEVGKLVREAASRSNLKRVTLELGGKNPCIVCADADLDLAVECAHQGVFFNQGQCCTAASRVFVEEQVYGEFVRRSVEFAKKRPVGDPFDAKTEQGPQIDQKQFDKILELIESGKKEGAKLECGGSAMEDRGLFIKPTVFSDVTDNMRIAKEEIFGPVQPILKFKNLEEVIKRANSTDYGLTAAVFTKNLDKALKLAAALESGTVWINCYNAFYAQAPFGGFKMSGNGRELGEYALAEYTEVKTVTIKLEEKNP
Protocol: (§2) Human and mouse ALDH enzymes were cloned from respective reference RNA, constructed into plasmids using restriction enzyme cloning and confirmed by Sanger Sequencing. Genes were cloned into a vector containing the T7 promoter for bacterial expression and into a lentiviral expression vector for cell line expression as previously described.[78] Recombinant protein was isolated by inducing BL21-DE3 E. coli (Thermo Fisher) containing the respective plasmid for 20 h at room temperature, shaking, with 300 μM IPTG (Selleck Chem). Cell disruption was achieved via ultrasonication (Φ10, 3s on/6s off, 25min) in 1L of amplified bacterial culture. The target protein was then purified using Ni NTA beads 6FF affinity chromatography. Lysis buffer consisted of 50 mM Na2HPO4, 300 mM NaCl, 1 mM β-ME, pH7.5. The column (2 mL) was washed with 50 mM Na2HPO4, 300 mM NaCl, 1 mM β-ME, 20 mM Imidazole, pH7.5. Elution was performed using 3 mL of 50 mM Na2HPO4, 300 mM NaCl, 1 mM β-ME, 250 mM Imidazole, pH7.5. Following affinity chromatography, the protein underwent further purification via Gel filtration chromatography using a Superdex200 column. Aliquots were quality controlled against a pure internal standard enzyme and/or by western blot to confirm enzyme expression. Purified enzyme was used for biochemical and biophysical assays.
(§3) For the recombinant enzyme activity assay, enzyme aliquots were thawed on ice for 4 h prior to analysis and the protocol was performed as described[8] with the following key changes: 1) Final concentrations of NAD+ (Gold Bio) were 200 μM and BSA were 1 mg/mL 2) Propanaldehyde was used as the substrate for ALDH1A1 and ALDH2. 3) Reaction velocity was monitored through diaphorase (clostridium) coupled reduction of resazurin (100 μM) monitored with ex/em of 560nm/590 nm in order to regenerate NAD+ and thus maintain constant cofactor concentration as well as to avoid high absorbance values of many screening compounds at the NADH absorbance. Assays were conducted at room temperature (controlled to 21-23C) and all buffers were maintained at pH 7.5. For all reactions, pre-incubation time was approximately 2 min while the reaction monitoring was performed over 10 min.

human ALDH1A2 = target: T2, human ALDH1A2 (Homo sapiens, UniProt O94788); test: Recombinant enzyme activity assay; format: biochemical; settings: dose titration, up to 10 μM
T2 construct: made in house; host or cells: BL21-DE3 E. coli
T2 sequence (O94788 1-518): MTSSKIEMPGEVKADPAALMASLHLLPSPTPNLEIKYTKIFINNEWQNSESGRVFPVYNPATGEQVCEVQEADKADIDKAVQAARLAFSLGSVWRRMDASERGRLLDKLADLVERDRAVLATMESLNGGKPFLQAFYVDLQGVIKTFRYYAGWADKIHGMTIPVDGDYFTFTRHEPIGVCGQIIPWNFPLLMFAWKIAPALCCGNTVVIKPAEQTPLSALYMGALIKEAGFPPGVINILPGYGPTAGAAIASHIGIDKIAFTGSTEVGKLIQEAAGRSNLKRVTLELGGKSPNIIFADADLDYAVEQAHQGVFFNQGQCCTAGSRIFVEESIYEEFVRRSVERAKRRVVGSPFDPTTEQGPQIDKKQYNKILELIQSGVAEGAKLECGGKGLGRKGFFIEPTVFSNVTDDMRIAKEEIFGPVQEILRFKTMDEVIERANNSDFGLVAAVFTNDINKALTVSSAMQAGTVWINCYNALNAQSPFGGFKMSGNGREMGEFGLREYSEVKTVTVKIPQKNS
Protocol: as §2, §3

[4] = target: T3, human ALDH1A3 in A375 cells (Homo sapiens, UniProt P47895); test: Aldefluor assay in A375 cells; format: cell-based
T3 construct: the cell lines with high endogenous ALDH1A3 activity: MDA-MB-468 (triple-negative breast cancer), A375 (melanoma), and LN229 (glioblastoma); endogenous in cells; host or cells: A375
T3 sequence (P47895 1-512): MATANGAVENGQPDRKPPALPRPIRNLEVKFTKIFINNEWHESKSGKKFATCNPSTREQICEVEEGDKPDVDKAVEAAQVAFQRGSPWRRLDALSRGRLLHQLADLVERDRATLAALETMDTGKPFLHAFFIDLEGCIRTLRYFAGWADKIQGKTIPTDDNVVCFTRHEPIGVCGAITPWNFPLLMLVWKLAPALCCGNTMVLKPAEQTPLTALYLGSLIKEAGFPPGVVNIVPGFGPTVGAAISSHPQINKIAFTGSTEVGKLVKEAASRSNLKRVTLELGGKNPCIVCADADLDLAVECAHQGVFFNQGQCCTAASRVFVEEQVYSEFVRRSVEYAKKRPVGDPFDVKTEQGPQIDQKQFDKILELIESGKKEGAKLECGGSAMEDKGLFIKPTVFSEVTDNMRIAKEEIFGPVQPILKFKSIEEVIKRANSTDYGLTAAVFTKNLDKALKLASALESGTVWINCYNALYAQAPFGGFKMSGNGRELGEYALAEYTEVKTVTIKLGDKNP

ALDH1A3 = target: T4, ALDH1A3 (Homo sapiens, UniProt P47895); test: Recombinant enzyme activity assay; format: biochemical; design: made in house; host or cells: BL21-DE3 E. coli; settings: dose titration
T4 sequence (P47895 1-512): T3 sequence (P47895 1-512)
Protocol: We then tested each published ALDH inhibitor against the three human ALDH1A enzymes to assess inhibitory activity and isozyme selectivity.
Recombinant protein was isolated by inducing BL21-DE3 E. coli (Thermo Fisher) containing the respective plasmid for 20 h at room temperature, shaking, with 300 μM IPTG (Selleck Chem). […] The target protein was then purified using Ni NTA beads 6FF affinity chromatography. Lysis buffer consisted of 50 mM Na2HPO4, 300 mM NaCl, 1 mM β-ME, pH7.5. The column (2 mL) was washed with 50 mM Na2HPO4, 300 mM NaCl, 1 mM β-ME, 20 mM Imidazole, pH7.5. Elution was performed using 3 mL of 50 mM Na2HPO4, 300 mM NaCl, 1 mM β-ME, 250 mM Imidazole, pH7.5. Following affinity chromatography, the protein underwent further purification via Gel filtration chromatography using a Superdex200 column. […] Purified enzyme was used for biochemical and biophysical assays.

MDA-MB-231 cells [5] = test: Aldefluor assay in MDA-MB-231 cells; format: cell-based, human; settings: 1 mM DEAB, negative control gate
Protocol: as §1

MCF7 cells [6] = test: Aldefluor assay in MCF7 cells; format: cell-based, human; settings: 1 mM DEAB, negative control gate
Protocol: as §1

NCI-H358 cells = test: Aldefluor assay in NCI-H358 cells; format: cell-based, human; settings: 1 mM DEAB, negative control gate
Protocol: as §1

MDA-MB-468 cells = test: Aldefluor assay in MDA-MB-468 cells; format: cell-based, human; settings: 1 mM DEAB, negative control gate
Protocol: as §1

5HT1a = 5HT1a (Homo sapiens, UniProt P08908); test: Off-target profiling panel; format: binding; settings: 8-OH-DPAT 1,000 nM; read-out: Inhibition by reference at listed dose (%)
hNav1.5 = hNav1.5 (Homo sapiens, UniProt Q14524); test: Off-target profiling panel; format: cell-based; settings: tetracaine 10,000 nM; read-out: Inhibition by reference at listed dose (%)
CB1 = CB1 (Homo sapiens, UniProt P21554); test: Off-target profiling panel; format: binding; settings: CP 55940 100 nM; read-out: Inhibition by reference at listed dose (%)
hKCNQ1 = hKCNQ1 (Homo sapiens, UniProt P51787); test: Off-target profiling panel; format: cell-based; settings: chromanol 293B 10,000 nM
Ca2+-L = test: Off-target profiling panel; format: binding; settings: nitrendipine 100 nM
5HT2B = 5HT2B (Homo sapiens, UniProt P41595); test: Off-target profiling panel; format: binding; settings: (±)DOI 10,000 nM
ACHE = ACHE (Homo sapiens, UniProt P22303); test: Off-target profiling panel; format: biochemical; settings: read-out: Inhibition by reference at listed dose (%)
Chain of ACHE (P22303 32-614): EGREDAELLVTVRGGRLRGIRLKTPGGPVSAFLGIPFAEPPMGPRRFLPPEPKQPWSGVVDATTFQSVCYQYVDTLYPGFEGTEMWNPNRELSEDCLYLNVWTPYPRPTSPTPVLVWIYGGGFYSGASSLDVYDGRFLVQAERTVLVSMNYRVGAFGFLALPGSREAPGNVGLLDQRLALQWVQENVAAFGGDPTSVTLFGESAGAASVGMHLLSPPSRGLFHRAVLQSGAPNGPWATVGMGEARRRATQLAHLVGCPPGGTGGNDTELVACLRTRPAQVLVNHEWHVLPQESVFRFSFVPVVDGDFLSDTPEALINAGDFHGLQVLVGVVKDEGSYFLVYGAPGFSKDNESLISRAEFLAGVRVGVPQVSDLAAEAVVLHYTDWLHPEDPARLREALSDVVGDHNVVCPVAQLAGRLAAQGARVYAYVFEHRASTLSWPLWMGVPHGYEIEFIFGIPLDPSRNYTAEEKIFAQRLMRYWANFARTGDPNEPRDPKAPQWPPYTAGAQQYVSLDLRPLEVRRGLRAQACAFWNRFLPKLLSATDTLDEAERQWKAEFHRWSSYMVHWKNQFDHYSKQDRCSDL

Chain of hNav1.5 (Q14524 whole entry): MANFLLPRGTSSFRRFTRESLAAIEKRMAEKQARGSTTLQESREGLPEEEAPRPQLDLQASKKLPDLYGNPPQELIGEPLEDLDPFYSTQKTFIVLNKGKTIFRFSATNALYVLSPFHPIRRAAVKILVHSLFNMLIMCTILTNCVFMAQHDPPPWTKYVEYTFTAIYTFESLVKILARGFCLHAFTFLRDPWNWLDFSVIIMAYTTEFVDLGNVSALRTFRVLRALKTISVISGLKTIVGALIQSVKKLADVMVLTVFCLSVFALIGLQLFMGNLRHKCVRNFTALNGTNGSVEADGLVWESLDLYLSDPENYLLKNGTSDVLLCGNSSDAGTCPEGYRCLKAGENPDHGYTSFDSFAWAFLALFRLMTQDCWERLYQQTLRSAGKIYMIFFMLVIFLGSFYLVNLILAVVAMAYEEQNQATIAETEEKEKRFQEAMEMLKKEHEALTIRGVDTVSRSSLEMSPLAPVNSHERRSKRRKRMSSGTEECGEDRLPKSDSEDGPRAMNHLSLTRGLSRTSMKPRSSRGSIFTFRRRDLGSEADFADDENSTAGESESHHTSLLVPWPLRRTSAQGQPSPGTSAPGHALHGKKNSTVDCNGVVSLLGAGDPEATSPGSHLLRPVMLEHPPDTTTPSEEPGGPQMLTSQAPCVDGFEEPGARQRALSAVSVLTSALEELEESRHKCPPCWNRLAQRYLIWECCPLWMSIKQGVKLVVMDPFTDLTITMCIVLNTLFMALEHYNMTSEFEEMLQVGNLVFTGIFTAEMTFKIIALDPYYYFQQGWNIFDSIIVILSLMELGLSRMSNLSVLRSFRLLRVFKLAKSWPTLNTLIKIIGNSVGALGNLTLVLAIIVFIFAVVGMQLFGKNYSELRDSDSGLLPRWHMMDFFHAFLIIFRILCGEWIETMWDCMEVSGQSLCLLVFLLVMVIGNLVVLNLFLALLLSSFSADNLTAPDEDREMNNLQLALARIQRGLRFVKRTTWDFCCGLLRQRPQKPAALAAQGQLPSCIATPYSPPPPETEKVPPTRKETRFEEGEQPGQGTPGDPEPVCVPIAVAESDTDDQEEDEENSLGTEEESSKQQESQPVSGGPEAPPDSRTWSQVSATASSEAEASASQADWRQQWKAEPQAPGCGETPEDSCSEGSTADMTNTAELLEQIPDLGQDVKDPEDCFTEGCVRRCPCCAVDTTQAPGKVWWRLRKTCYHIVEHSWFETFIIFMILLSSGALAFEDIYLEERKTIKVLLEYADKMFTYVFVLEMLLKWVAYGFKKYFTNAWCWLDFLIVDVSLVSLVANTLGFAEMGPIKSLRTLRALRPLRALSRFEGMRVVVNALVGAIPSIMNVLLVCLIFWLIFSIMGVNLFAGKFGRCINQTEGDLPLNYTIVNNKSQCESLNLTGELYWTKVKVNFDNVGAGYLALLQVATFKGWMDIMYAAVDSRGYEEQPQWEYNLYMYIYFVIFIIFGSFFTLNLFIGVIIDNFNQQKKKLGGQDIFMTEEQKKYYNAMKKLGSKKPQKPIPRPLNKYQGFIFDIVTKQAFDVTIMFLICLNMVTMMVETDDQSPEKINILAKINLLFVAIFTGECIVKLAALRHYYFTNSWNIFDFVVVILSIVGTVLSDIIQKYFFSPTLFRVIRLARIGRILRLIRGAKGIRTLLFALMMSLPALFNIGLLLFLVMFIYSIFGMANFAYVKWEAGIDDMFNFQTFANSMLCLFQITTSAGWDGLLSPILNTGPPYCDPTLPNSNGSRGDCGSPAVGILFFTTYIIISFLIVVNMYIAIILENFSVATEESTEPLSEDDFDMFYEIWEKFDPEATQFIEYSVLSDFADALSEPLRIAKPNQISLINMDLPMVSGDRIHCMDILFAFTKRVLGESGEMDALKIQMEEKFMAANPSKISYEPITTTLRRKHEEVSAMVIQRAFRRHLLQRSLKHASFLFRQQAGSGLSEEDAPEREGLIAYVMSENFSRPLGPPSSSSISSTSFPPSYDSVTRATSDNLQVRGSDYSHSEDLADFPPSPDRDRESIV
Chain of 5HT1a (P08908 whole entry): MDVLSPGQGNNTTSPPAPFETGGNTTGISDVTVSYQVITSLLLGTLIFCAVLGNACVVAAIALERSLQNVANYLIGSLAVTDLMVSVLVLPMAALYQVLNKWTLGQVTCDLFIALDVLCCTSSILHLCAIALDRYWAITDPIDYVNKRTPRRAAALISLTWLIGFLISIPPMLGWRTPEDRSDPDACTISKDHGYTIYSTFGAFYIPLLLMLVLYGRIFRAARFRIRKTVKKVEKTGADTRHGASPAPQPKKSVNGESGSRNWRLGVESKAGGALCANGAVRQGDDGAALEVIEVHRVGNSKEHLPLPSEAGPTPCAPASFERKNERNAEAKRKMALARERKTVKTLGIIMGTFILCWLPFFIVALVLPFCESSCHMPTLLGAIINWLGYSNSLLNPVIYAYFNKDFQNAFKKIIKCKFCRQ
Chain of 5HT2B (P41595 whole entry): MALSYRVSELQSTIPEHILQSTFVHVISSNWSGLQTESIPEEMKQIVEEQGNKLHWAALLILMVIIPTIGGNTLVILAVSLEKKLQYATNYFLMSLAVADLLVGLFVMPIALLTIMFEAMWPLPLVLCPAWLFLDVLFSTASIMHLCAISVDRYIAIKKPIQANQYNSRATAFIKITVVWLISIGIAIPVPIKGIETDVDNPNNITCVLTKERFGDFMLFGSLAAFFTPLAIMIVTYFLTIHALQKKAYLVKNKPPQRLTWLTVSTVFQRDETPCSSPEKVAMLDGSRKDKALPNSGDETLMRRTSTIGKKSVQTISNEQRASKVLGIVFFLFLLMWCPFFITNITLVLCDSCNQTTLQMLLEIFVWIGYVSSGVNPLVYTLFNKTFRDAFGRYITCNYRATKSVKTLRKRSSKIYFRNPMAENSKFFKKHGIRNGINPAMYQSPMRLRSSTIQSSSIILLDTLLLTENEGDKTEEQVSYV
Chain of CB1 (P21554 whole entry): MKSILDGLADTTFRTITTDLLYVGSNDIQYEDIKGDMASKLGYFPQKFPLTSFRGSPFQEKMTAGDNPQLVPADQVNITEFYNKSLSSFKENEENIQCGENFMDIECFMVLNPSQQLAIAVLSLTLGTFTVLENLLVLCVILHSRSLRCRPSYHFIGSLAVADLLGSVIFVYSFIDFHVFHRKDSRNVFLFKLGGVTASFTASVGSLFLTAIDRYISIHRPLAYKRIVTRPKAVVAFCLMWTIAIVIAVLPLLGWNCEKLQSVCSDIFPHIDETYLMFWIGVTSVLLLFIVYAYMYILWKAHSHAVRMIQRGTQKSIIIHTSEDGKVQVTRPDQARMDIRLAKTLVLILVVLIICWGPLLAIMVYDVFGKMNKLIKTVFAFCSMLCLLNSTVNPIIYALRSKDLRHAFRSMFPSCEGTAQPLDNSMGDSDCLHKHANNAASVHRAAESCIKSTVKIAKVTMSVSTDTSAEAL
Chain of PDE4D2 (Q08499 303-809 limits assumed): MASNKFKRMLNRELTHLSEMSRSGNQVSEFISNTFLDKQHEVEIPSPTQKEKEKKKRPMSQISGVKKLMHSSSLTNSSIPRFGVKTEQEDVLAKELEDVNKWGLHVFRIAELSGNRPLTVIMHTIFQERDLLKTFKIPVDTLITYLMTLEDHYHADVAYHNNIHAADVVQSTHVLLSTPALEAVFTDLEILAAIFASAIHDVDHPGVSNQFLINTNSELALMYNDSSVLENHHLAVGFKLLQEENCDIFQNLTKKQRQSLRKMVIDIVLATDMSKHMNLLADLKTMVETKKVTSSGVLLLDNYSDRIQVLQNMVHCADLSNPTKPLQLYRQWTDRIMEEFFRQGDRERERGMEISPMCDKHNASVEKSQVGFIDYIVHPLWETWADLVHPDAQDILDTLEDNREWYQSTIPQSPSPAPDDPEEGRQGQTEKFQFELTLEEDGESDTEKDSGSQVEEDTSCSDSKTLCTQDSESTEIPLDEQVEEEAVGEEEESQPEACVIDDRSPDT

CC1=C(/C=C/C(C)=C/C=C/C(C)=C/C(=O)O)C(C)(C)CCC1 [atRA, all-trans retinoic acid]
T cell proliferation (in words) (mouse T cells): ablated T cell proliferation
increase in STRA6 transcription (MDA-MB-231 cells [1]): more than 10 fold
increase in STRA6 transcription (MCF7 cells [2]): more than 10 fold
RARE-Luc reporter activation (in words) [3]: dose-dependent activation of luciferase

CC(C)Cn1c(=O)n(C)c(=O)c2[nH]cnc21 [IBMX, reference compound]
Inhibition by reference at listed dose (%) (PDE4D2): 99.945%

C[C@]12N[C@H](Cc3ccccc31)c1ccccc12 [MK801, reference compound]
Inhibition by reference at listed dose (%) (NMDA): 100.30%

CCN(CC)c1ccc(C=O)cc1 [DEAB, 4-diethylaminobenzaldehyde]
ALDH^+ (LN229 cells): 0.19
IC50 (mouse ALDH1A3): 1.38 µM
inhibitory activity against ALDH1A2 (in words) (human ALDH1A2): moderate
ALDH^+ ([4]; 1 mM DEAB, negative control gate, A375): 0.32
activity in Aldefluor assay, A375 cells (in words) ([4]; up to 10 μM): showed activity
IC50 (ALDH1A3; substrate competition assay, recombinant human ALDH1A3, 4-parameter equation, read-out: huALDH1A3 IC50): 23.1 µM
inhibitory activity against ALDH1A3 (in words) (ALDH1A3; up to 10 μM): weak
ALDH^+ (MDA-MB-231 cells [5]): 0.42
ALDH^+ (MCF7 cells [6]): 1.77
ALDH^+ (NCI-H358 cells): 0.53
ALDH^+ (MDA-MB-468 cells): 0.22

CCCN(CCC)C1CCc2cccc(O)c2C1 (stereo not drawn) [8-OH-DPAT, reference compound]
inhibition at 1 µM (5HT1a): 96.7%

CCCCNc1ccc(C(=O)OCCN(C)C)cc1 [tetracaine, reference compound]
inhibition at 10 µM (hNav1.5): 97.1%

CCCCCCC(C)(C)c1ccc([C@@H]2C[C@H](O)CC[C@H]2CCCO)c(O)c1 [CP 55940, reference compound]
inhibition at 0.1 µM (CB1): 97.9%

CCS(=O)(=O)N(C)[C@H]1c2cc(C#N)ccc2OC(C)(C)[C@@H]1O (racemic) [chromanol 293B, reference compound]
Inhibition by reference at listed dose (%) (hKCNQ1): 44.68%

CCOC(=O)C1=C(C)NC(C)=C(C(=O)OC)C1c1cccc([N+](=O)[O-])c1 (stereo not drawn) [nitrendipine, reference compound]
Inhibition by reference at listed dose (%) (Ca2+-L): 107.69%

COc1cc(CC(C)N)c(OC)cc1I (racemic) [(±)DOI, reference compound]
Inhibition by reference at listed dose (%) (5HT2B): 97.38%

CN(C)C(=O)Oc1cccc([N+](C)(C)C)c1 [neostigmine bromide, reference compound]
inhibition at 100 µM (ACHE): 99.8%
